Measured values published in patent US20260130933A1, “PHARMACEUTICAL COMPOSITION FOR PREVENTION OR TREATMENT OF NEPHROPATHY AND/OR DIABETES MELLITUS, COMPRISING ENAVOGLIFLOZIN” (DAEWOONG PHARMACEUTICAL CO., LTD., priority 2022, published 2026).

Assay: Example 3: phase 3 trial, enavogliflozin 0.3 mg vs dapagliflozin 10 mg once a day for 24 weeks added to metformin and gemigliptin in patients with type 2 diabetes (same endpoints, rescue drug)
Format: in vivo, human
Conditions: week 18
Protocol: 1) when Metformin (≥1,000 mg/Day) was Administered at a Constant Dose for at Least 8 Weeks Prior to Pre-Visit (Pre-Screening) • Metformin (≥1,000 mg/day) and gemigliptin (50 mg/day) were co-administered during the 8-week stabilization period. […] 4) when Metformin (≥1,000 mg/Day) and Gemigliptin (50 mg/Day) were Co-Administered at Constant Doses for at Least 8 Weeks Prior to Pre-Visit (Prescreening) • Without a separate stabilization period, Pre-visit (pre-screening) was Visit 1 (screening).
Subjects who met the inclusion/exclusion criteria continued to receive metformin and gemigliptin while receiving a placebo of the clinical trial drug in a single-blind (subject-blinded) state for a 2-week run-in period.
Here, the randomized subjects were stratified according to the administration therapy (co-administration with two or less agents (one or two agents) or three or more agents) of a conventional hypoglycemic agent (before washout of another hypoglycemic agent) within 24 weeks prior to obtaining written informed consent and by an HbA1c value (<8% or ≥8%) at Visit 1 (screening) measured in the central laboratory.
The randomized subjects were administered two tablets of the clinical trial drug corresponding to each administration group once a day, and then visited the institution at weeks 6, 12, 18, and 24 during the 24-week administration period to conduct efficacy and safety assessments. In addition, during the clinical trial period, they were instructed to exercise regularly and control their diet without changing their daily life patterns.
• 1) Change in HbA1c at week 24 after administration of clinical trial drug compared to Visit 2 (randomization)
• 1) Change in HbA1c at each time point of weeks 6, 12, and 18 after administration of clinical trial drug compared to Visit 2 (randomization) • 2) Change in FPG at each time point of weeks 6, 12, 18, and 24 after administration of clinical trial drug compared to Visit 2 (randomization) • 3) Proportion of subjects achieving HbA1c<7% at each time point of weeks 6, 12, 18, and 24 after administration of clinical trial drug • 4) Proportion of subjects achieving HbA1c<6.5% at each time point of weeks 6, 12, 18, and 24 after administration of clinical trial drug • 5) Proportion of subjects achieving therapeutic response (HbA1c change (HbA1c at Visit 2—HbA1c at each evaluation time point)>0.5% or HbA1c<7% at each evaluation time point compared to Visit 2 (randomization)) at each time point of weeks 6, 12, 18, and 24 after administration of clinical trial drug • 6) Proportion of subjects achieving therapeutic response (HbA1c change (HbA1c at Visit 2—HbA1c at each evaluation time point)>0.7% or HbA1c<7% at each evaluation time point compared to Visit 2 (randomization)) at each time point of weeks 6, 12, 18, and 24 after administration of clinical trial drug • 7) Proportion of subjects achieving therapeutic response (HbA1c change (HbA1c at Visit 2—HbA1c at each evaluation time point)>1% or HbA1c<7% at each evaluation time point compared to Visit 2 (randomization)) at each time point of weeks 6, 12, 18, and 24 after administration of clinical trial drug

[1] = modified per-protocol set 2, enavogliflozin 0.3 mg, dapagliflozin 10 mg
[2] = per-protocol set, enavogliflozin 0.3 mg vs dapagliflozin 10 mg
[3] = per-protocol set, enavogliflozin 0.3 mg, dapagliflozin 10 mg

OC[C@H]1O[C@@H](c2cc(Cc3ccc(C4CC4)cc3)c(Cl)c3c2CCO3)[C@H](O)[C@@H](O)[C@@H]1O [Enavogliflozin, (2S,3R,4R,5S,6R)-2-(7-chloro-6 (4-cyclopropylbenzyl)-2,3-dihydrobenzofuran-4-yl)-6-(hydroxymethyl)tetrahydro-2H-pyran-3,4,5-triol]
Change from baseline in diastolic blood pressure, Median (modified per-protocol set 2): −5.00 mmHg
Diastolic blood pressure, Mean (modified per-protocol set 2): 72.53 mmHg
Diastolic blood pressure, Median (modified per-protocol set 2): 72.00 mmHg
Change from baseline in systolic blood pressure, ANCOVA LS mean difference (modified per-protocol set 2, enavogliflozin 0.3 mg vs dapagliflozin 10 mg): −1.66 mmHg
Change from baseline in systolic blood pressure, ANCOVA LS mean [1]: −6.82 mmHg
Change from baseline in systolic blood pressure, Mean [1]: −7.37 mmHg
Change from baseline in systolic blood pressure, Median [1]: −7.00 mmHg
Systolic blood pressure, Mean [1]: 119.95 mmHg
Systolic blood pressure, Median [1]: 119.00 mmHg
Adiponectin, Mean (per-protocol set): 7.03 µg/mL
Adiponectin, Median (per-protocol set): 6.26 µg/mL
Change from baseline in HOMA-IR, ANCOVA LS mean (per-protocol set): −1.14
Change from baseline in HOMA-IR, LS mean difference (enavogliflozin − dapagliflozin) (per-protocol set): −0.13
Change from baseline in HOMA-IR, Mean (per-protocol set): −1.16
Change from baseline in HOMA-IR, Median (per-protocol set): −0.82
Change from baseline in HOMA-β, ANCOVA LS mean (per-protocol set): 5.97
Change from baseline in HOMA-β, LS mean difference (enavogliflozin − dapagliflozin) (per-protocol set): 1.48
Change from baseline in HOMA-β, Mean (per-protocol set): 6.09
Change from baseline in HOMA-β, Median (per-protocol set): 4.10
Change from baseline in UACR, ANCOVA LS mean (per-protocol set): -11.08 g/kg
Change from baseline in UACR, LS mean difference (enavogliflozin − dapagliflozin) (per-protocol set): -2.18 g/kg
Change from baseline in UACR, Mean (per-protocol set): -12.07 g/kg
Change from baseline in UACR, Median (per-protocol set): -1.50 g/kg
Change from baseline in UGCR, ANCOVA LS mean (per-protocol set): 58.74 mg/mg
Change from baseline in UGCR, LS mean difference (enavogliflozin − dapagliflozin) (per-protocol set): 13.34 mg/mg
Change from baseline in UGCR, Mean (per-protocol set): 57.23 mg/mg
Change from baseline in UGCR, Median (per-protocol set): 54.56 mg/mg
Change from baseline in adiponectin, ANCOVA LS mean (per-protocol set): 0.78 µg/mL
Change from baseline in adiponectin, LS mean difference (enavogliflozin − dapagliflozin) (per-protocol set): 0.42 µg/mL
Change from baseline in adiponectin, Mean (per-protocol set): 0.80 µg/mL
Change from baseline in adiponectin, Median (per-protocol set): 0.60 µg/mL
Change from baseline in leptin, ANCOVA LS mean (per-protocol set): -1.46 ng/mL
Change from baseline in leptin, LS mean difference (enavogliflozin − dapagliflozin) (per-protocol set): -0.40 ng/mL
Change from baseline in leptin, Mean (per-protocol set): -1.63 ng/mL
Change from baseline in leptin, Median (per-protocol set): -0.89 ng/mL
HOMA-IR (insulin resistance), Mean (per-protocol set): 1.74
HOMA-IR (insulin resistance), Median (per-protocol set): 1.42
HOMA-β (beta-cell function), Mean (per-protocol set): 49.26
HOMA-β (beta-cell function), Median (per-protocol set): 40.00
Leptin, Mean (per-protocol set): 8.87 ng/mL
Leptin, Median (per-protocol set): 5.86 ng/mL
UACR, Mean (per-protocol set): 25.02 g/kg
UACR, Median (per-protocol set): 11.30 g/kg
UGCR, Mean (per-protocol set): 57.96 mg/mg
UGCR, Median (per-protocol set): 54.71 mg/mg
Achieving HbA1c target of <6.5%, odds ratio (logistic regression model) [2]: 1.20
Achieving HbA1c target of <7%, odds ratio (logistic regression model) [2]: 1.36
Change from baseline in FPG, ANCOVA LS mean difference [2]: -4.22 mg/dL
Change from baseline in HbA1c, ANCOVA LS mean difference [2]: −0.07 % p
Change from baseline in body weight, ANCOVA LS mean difference [2]: -0.15 kg
Change from baseline in fasting C-peptide, ANCOVA LS mean difference [2]: -0.02 ng/mL
Therapeutic glycemic response 1, odds ratio (logistic regression model) [2]: 1.02
Therapeutic glycemic response 2, odds ratio (logistic regression model) [2]: 1.09
Therapeutic glycemic response 3, odds ratio (logistic regression model) [2]: 1.22
Body weight, Mean [3]: 66.18 kg
Change from baseline in FPG, ANCOVA LS mean [3]: -27.77 mg/dL
Change from baseline in FPG, Mean [3]: -28.00 mg/dL
Change from baseline in FPG, Median [3]: -24.00 mg/dL
Change from baseline in HbA1c, ANCOVA LS mean [3]: −0.83 % p
Change from baseline in HbA1c, Mean [3]: −0.84 % p
Change from baseline in HbA1c, Median [3]: −0.72 % p
Change from baseline in body weight, ANCOVA LS mean [3]: -3.16 kg
Change from baseline in body weight, Mean [3]: -3.10 kg
Change from baseline in body weight, Median [3]: -2.90 kg
Change from baseline in fasting C-peptide, ANCOVA LS mean [3]: -0.08 ng/mL
Change from baseline in fasting C-peptide, Mean [3]: -0.09 ng/mL
Change from baseline in fasting C-peptide, Median [3]: -0.10 ng/mL
FPG, Mean [3]: 111.10 mg/dL
FPG, Median [3]: 109.00 mg/dL
Fasting C-peptide, Mean [3]: 0.64 ng/mL
Fasting C-peptide, Median [3]: 0.60 ng/mL
HbA1c, Mean [3]: 6.95%
